In ChEMBL document CHEMBL4270560, “Novel curcumin analogue hybrids: Synthesis and anticancer activity” (Eur J Med Chem, 2018):
Active and inactive are the calls of the source. The calls are words filed in the database; no cut-off is given here.

Assays:
SGC-7901 [1] = test: Induction of mitochondrial membrane depolarization in human SGC7901 cells assessed as cells with intact mitochondrial membrane potential at 1000 nM after 48 hrs by JC-1 staining based flow cytometric analysis (reference value: 87.3%); type: functional
[2] = target: T1, Thioredoxin reductase (Homo sapiens) (UniProt Q16881+Q9NNW7+Q86VQ6); test: Inhibition of TrxR in human SGC7901 cells assessed as p38 phosphorylation at 1200 nM after 48 hrs in presence of NAC by Western blot analysis; type: cell-based
SGC-7901 [3] = test: Induction of mitochondrial membrane depolarization in human SGC7901 cells assessed as cells with mitochondrial membrane potential loss at 1200 nM after 48 hrs in presence of NAC by JC-1 staining based flow cytometric analysis (reference value: 1.65%); type: functional
SGC-7901 [4] = test: Induction of apoptosis in human SGC7901 cells assessed as viable cells at 800 nM after 48 hrs by Annexin V-FITC/propidium iodide staining based flow cytometric analysis (reference value: 95.9%); type: functional; conditions: SGC-7901, 48 h, read-out: Activity
SGC-7901 [5] = test: Induction of apoptosis in human SGC7901 cells assessed as increase in Bax to Bcl-2 ratio level at 600 to 1200 nM after 48 hrs by Western blot analysis; type: functional, cell-based
SGC-7901 [6] = test: Induction of apoptosis in human SGC7901 cells assessed as increase in Bax to Bcl-2 ratio level at 1200 nM after 48 hrs in presence of NAC by Western blot analysis; type: functional, cell-based
SGC-7901 [7] = test: Induction of apoptosis in human SGC7901 cells assessed as early apoptotic cells at 1000 nM after 48 hrs by Annexin V-FITC/propidium iodide staining based flow cytometric analysis (reference value: 0.851 to 2.30%); type: functional
SGC-7901 [8] = test: Induction of apoptosis in human SGC7901 cells assessed as necrotic cells at 1200 nM after 48 hrs in presence of NAC by Annexin V-FITC/propidium iodide staining based flow cytometric analysis (reference value: 0.304%); type: functional
SGC-7901 [9] = test: Induction of mitochondrial membrane depolarization in human SGC7901 cells assessed as cells with mitochondrial membrane potential loss at 800 nM after 48 hrs by JC-1 staining based flow cytometric analysis (reference value: 9.29%); type: functional
SGC-7901 [10] = test: Induction of mitochondrial membrane depolarization in human SGC7901 cells assessed as cells with intact mitochondrial membrane potential at 1200 nM after 48 hrs by JC-1 staining based flow cytometric analysis (reference value: 87.3 to 98%); type: functional
SGC-7901 [11] = test: Induction of apoptosis in human SGC7901 cells assessed as viable cells at 1000 nM after 48 hrs in presence of NAC by Annexin V-FITC/propidium iodide staining based flow cytometric analysis (reference value: 96%); type: functional; conditions: SGC-7901, 48 h, read-out: Activity
SGC-7901 [12] = test: Antiproliferative activity against human SGC7901 cells after 48 hrs by MTT assay; type: functional, cell-based; conditions: SGC-7901, 48 h
SGC-7901 [13] = test: Induction of apoptosis in human SGC7901 cells assessed as viable cells at 1000 nM after 48 hrs by Annexin V-FITC/propidium iodide staining based flow cytometric analysis (reference value: 95.9 to 96%); type: functional; conditions: SGC-7901, 48 h, read-out: Activity
[14] = target: T2, Thioredoxin reductase 1, cytoplasmic (Homo sapiens) (UniProt Q16881); test: (§1) Inhibition of TrxR in human SGC7901 cells; type: cell-based
T2 sequence (whole entry): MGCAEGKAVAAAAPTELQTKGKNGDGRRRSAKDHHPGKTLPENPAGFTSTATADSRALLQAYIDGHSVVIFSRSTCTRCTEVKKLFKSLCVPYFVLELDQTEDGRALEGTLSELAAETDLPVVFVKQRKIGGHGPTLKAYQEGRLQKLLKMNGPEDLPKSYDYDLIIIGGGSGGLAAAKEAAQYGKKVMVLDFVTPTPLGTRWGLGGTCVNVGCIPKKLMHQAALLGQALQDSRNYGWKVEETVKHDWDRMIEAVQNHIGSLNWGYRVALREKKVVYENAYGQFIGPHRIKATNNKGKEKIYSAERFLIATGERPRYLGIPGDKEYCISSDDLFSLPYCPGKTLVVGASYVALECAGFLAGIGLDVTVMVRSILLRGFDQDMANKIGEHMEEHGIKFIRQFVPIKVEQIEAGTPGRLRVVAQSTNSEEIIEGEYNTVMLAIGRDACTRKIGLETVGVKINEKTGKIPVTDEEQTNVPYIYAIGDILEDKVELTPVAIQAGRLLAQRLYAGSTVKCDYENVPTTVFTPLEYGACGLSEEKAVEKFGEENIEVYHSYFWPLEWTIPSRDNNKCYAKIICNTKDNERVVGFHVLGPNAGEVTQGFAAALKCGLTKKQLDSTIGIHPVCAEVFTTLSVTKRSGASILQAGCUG

[15] = target: T3, Thioredoxin reductase 1, cytoplasmic (Homo sapiens, UniProt Q16881); test: as §1; type: cell-based
T3 sequence (Q16881 whole entry): T2 sequence (whole entry)

SGC-7901 [16] = test: Cell cycle arrest in human SGC7901 cells assessed as accumulation at G1 phase at 1200 nM after 48 hrs by propidium iodide staining based flow cytometric analysis (reference value: 47.93%); type: functional
SGC-7901 [17] = test: Induction of apoptosis in human SGC7901 cells assessed as necrotic cells at 1200 nM after 48 hrs by Annexin V-FITC/propidium iodide staining based flow cytometric analysis (reference value: 0.052 to 0.304%); type: functional
SGC-7901 [18] = test: Cell cycle arrest in human SGC7901 cells assessed as accumulation at G2 phase at 600 nM after 48 hrs by propidium iodide staining based flow cytometric analysis (reference value: 18.77%); type: functional
SGC-7901 [19] = test: Induction of mitochondrial membrane potential loss in human SGC7901 cells after 48 hrs by JC-1 staining based flow cytometric analysis; type: functional, cell-based
SGC-7901 [20] = test: Induction of apoptosis in human SGC7901 cells assessed as early apoptotic cells at 1200 nM after 48 hrs in presence of NAC by Annexin V-FITC/propidium iodide staining based flow cytometric analysis (reference value: 0.851%); type: functional
SGC-7901 [21] = test: Induction of apoptosis in human SGC7901 cells assessed as early apoptotic cells at 800 nM after 48 hrs by Annexin V-FITC/propidium iodide staining based flow cytometric analysis (reference value: 2.30%); type: functional
MGC-803 = test: Antiproliferative activity against human MGC803 cells after 48 hrs by MTT assay; type: functional, cell-based; conditions: MGC-803, 48 h
SGC-7901 [22] = test: Induction of apoptosis in human SGC7901 cells after 48 hrs by Annexin V-FITC/propidium iodide staining based flow cytometric analysis; type: functional, cell-based
[23] = target: T1, Thioredoxin reductase (Homo sapiens); test: Inhibition of TrxR in human SGC7901 cells assessed as p38 phosphorylation at 600 to 1200 nM after 48 hrs by Western blot analysis; type: cell-based
SGC-7901 [24] = test: Induction of apoptosis in human SGC7901 cells assessed as early apoptotic cells at 600 nM after 48 hrs by Annexin V-FITC/propidium iodide staining based flow cytometric analysis (reference value: 2.30%); type: functional
SGC-7901 [25] = test: Induction of mitochondrial membrane depolarization in human SGC7901 cells assessed as cells with mitochondrial membrane potential loss at 1200 nM after 48 hrs by JC-1 staining based flow cytometric analysis (reference value: 1.65 to 9.29%); type: functional

COc1cc(OC)c2c(=O)c(OCCCOc3ccccc3/C=C/C(=O)/C=C/c3ccccn3)c(-c3cc(OC)c(OC)c(OC)c3)oc2c1
Activity (SGC-7901 [1]): 56.3%
inhibition [2]: inactive
Activity (SGC-7901 [3]): 1.74%
viability at 0.8 µM (SGC-7901 [4]): 66.8%
Activity (SGC-7901 [5]): Active
Activity (SGC-7901 [6]): inactive
Activity (SGC-7901 [7]): 24.7 - 32.2%
Activity (SGC-7901 [8]): 0.225%
Activity (SGC-7901 [9]): 21.2%
Activity (SGC-7901 [10]): 35.4 - 40.2%
viability at 1 µM (SGC-7901 [11]): 94.1%
IC50 (SGC-7901 [12]): 1080 nM
viability at 1 µM (SGC-7901 [13]): 50.1 to 59.6%
inhibition [14]: Dose-dependent effect
IC50 [15]: 783 nM
Activity (SGC-7901 [16]): 45.78%
Activity (SGC-7901 [17]): 0.131 - 1.62%
Activity (SGC-7901 [18]): 15.61%
Activity (SGC-7901 [19]): Dose-dependent effect
Activity (SGC-7901 [20]): 4.46%
Activity (SGC-7901 [21]): 24.5%
IC50 (MGC-803): 560 nM
Activity (SGC-7901 [22]): Dose-dependent effect
inhibition [23]: Active
Activity (SGC-7901 [24]): 5.79%
Activity (SGC-7901 [25]): 55.4 - 63.7%
